Read-outs that look alike come from different tables or passages of the source. Numbered stars: 1 amine (or outer) side, 2 acyl side, 3 side chain; on linkers, the order of the positions; unused ones are H or OH. Bridge positions count the residues as written; N and C are the ends. Square brackets hold non-standard residues; d marks the D form. Peptide text beside a SMILES is read from it. * marks the point of attachment. Orn(4R-OH,5R-OCH2CH2NMe3+) = C[N+](C)(C)CCO[C@@H](N[*:3])[C@H](O)C[C@H](N[*:1])C(=O)[*:2]; pTerphenylCO(4''-OnC5H11) = CCCCCOc1ccc(-c2ccc(-c3ccc(C(=O)*)cc3)cc2)cc1; hTyr(3S-OH,4S-OH) = N[C@H](C(=O)O)[C@H](O)[C@@H](O)c1ccc(O)cc1; Pro(3S-OH,4S-Me) = C[C@H]1CN[C@H](C(=O)O)[C@H]1O; Hyp = O=C(O)[C@@H]1C[C@@H](O)CN1
What was measured:
[1] = Population PK model of rezafungin in plasma, pooled phase 1 and phase 2 data; assay type: in vivo, human
Source text: Data were pooled from three phase 1 studies (NCT02516904, NCT02551549, and CD101.IV.1.06) and one phase 2 study (NCT02734862). The protocols and informed consent were reviewed and approved by an appropriate institutional review board before subject enrollment. The studies were designed and monitored in compliance with the ethical principles of good clinical practice and in accordance with the Declaration of Helsinki.
The first phase 1 study (NCT2516904) was a single ascending dose (SAD) study in which subjects received a single rezafungin dose of 50, 100, 200, or 400 mg or matching placebo administered as a 60-min IV infusion. A total of 32 subjects were enrolled and randomized evenly to each of the four dosing cohorts (6 active and 2 placebo in each cohort). Blood samples for determination of rezafungin plasma concentrations were obtained prior to the dose and at 0.25, 0.5, 1, 1.5, 2, 4, 6, 8, 12, 24, 48, and 120 h after the start of infusion and on days 7, 14 (±1 day), and 21 (±1 day). The second phase 1 study (NCT02551549) was a multiple ascending dose (MAD) study. A total of 24 subjects were enrolled and randomized evenly to one of three cohorts. In cohorts 1 and 2, subjects received 100 or 200 mg of rezafungin (or matching placebo in a 3:1 ratio in each cohort), respectively, as 60-min IV infusions on days 1 and 8. In cohort 3, subjects received 400 mg (or matching placebo in a 3:1 ratio), respectively, as 60-min IV infusions on days 1, 8, and 15. Blood samples were collected predose and at 0.5, 1, 1.5, 2, 4, 6, 8, 12, 24, 48, and 120 h after the start of each infusion and on days 7, 14 (±1 day), 21 (±1 day), and 35 (±1 day, cohort 3 only). The third phase 1 study (CD101.IV.1.06) was designed to assess the impact of single, ascending doses of rezafungin on QTcF interval in healthy subjects. Subjects were randomized to receive either rezafungin (600 or 1,400 mg IV at a rate of 400 mg/h, n = 12 per dose group), moxifloxacin (400 mg IV, n = 24), or placebo. Only data from subjects randomized to rezafungin were included in the population PK analysis data set. Blood samples for determination of rezafungin plasma concentrations were obtained prior to the dose and at 1.5, 2.5, 3.5, 5, 6, 8, 12, 24, 48, 96, and 168 h after the start of the infusion.
(§1) The phase 2 study (NCT02734862, also known as the STRIVE trial) was a multicenter, randomized, double-blind study designed to assess the safety and efficacy of rezafungin, compared to that of caspofungin followed by optional oral fluconazole step-down, in the treatment of patients with candidemia and/or invasive candidiasis. Treatment groups included two dose regimens of rezafungin IV once weekly (400 mg IV or 400 mg IV on week 1 followed by 200 mg on subsequent weeks) or caspofungin IV once daily. Additional doses after day 14 were allowed based on criteria defined in the study protocol. Blood samples for determination of rezafungin plasma concentrations were obtained within 10 min before the end of infusion and either at 4 and 8 h on day 1 (as specified in the original protocol) or from 15 min to 1 h after the end of infusion and 2 to 12 h after the end of infusion on day 1 (as modified by protocol amendment, designed to better inform the population PK model). Additional samples were obtained with random clinical blood draws on day 2 and day 4, as well as prior to the dose on day 8 and day 15 (or day 14 if no day 15 dose was administered).
All blood samples were assayed for plasma rezafungin concentration using a liquid chromatography coupled to tandem mass spectrometry (LC/MS/MS) method that has been described previously ([11], [12]). In brief, the calibration range for the assay was 10.0 ng/ml to 10,000 ng/ml, and interassay accuracy and precision were excellent (accuracy ranged from 0.3 to 4.3%, and precision ranged from 2.7 to 5.0%). The same assay was used for all four studies. […]

[2] = Post hoc rezafungin exposure and PK parameter estimates for patients of the STRIVE trial; assay type: in vivo, human; settings: n = 68, plasma; for AUC0–168 / Cmax / Cmin: after first dose and prior to the second dose; for AUC0–168: from individual post hoc parameters; for Cmax: highest predicted concentration; for Cmin: lowest predicted concentration; for clearance / Vd: human, iv; for clearance: individual post hoc estimates from final model; for Vd: volume of distribution at steady state, individual post hoc estimates, read-out: Vss
Description: as §1
All blood samples were assayed for plasma rezafungin concentration using a liquid chromatography coupled to tandem mass spectrometry (LC/MS/MS) method that has been described previously ([11], [12]). In brief, the calibration range for the assay was 10.0 ng/ml to 10,000 ng/ml, and interassay accuracy and precision were excellent (accuracy ranged from 0.3 to 4.3%, and precision ranged from 2.7 to 5.0%). The same assay was used for all four studies.
Patient-specific estimates of rezafungin exposure (AUC from zero to tau [AUC0−τ], maximum concentration of drug [Cmax], and minimum concentration of drug [Cmin]) were derived using individual post hoc PK parameter estimates obtained from the final model. The PK parameters and the mrgsolve package in R ([22]) were then used to simulate predicted plasma rezafungin concentration-time data for each subject for the duration of time between the first and second doses. Cmax and Cmin were defined as the highest and lowest predicted concentrations over that first dosing interval, respectively, while AUC0-τ was calculated via numerical integration of the concentration-time profile. Summary statistics for the rezafungin exposures and key PK parameters (i.e., CL and volume of distribution at steady state [Vss]) were calculated for the patients from the STRIVE trial.

[3] = with normal serum albumin, cited from earlier work
Source text: Consistent with the previous population PK model, which had relationships between body weight and all PK parameters ([12]), body size in the form of BSA was predictive of the variability in Vc, Vp1, and Vp2. However, body size was not a significant predictor of the variability in rezafungin CL in this population. One possible explanation for the lack of a body size relationship for CL is the fact that sex is predictive of the IIV in CL but none of the vo ...

[4] = final population PK model, covariate effect: (BSA/1.83)^power
[5] = STRIVE patients, median (range)

With `CCCCCOc1ccc(-c2ccc(-c3ccc(C(=O)N[C@H]4C[C@@H](O)[C@@H](OCC[N+](C)(C)C)NC(=O)[C@@H]5[C@@H](O)[C@@H](C)CN5C(=O)[C@H]([C@@H](C)O)NC(=O)[C@H]([C@H](O)[C@@H](O)c5ccc(O)cc5)NC(=O)[C@@H]5C[C@@H](O)CN5C(=O)[C@H]([C@@H](C)O)NC4=O)cc3)cc2)cc1` [rezafungin] ({pTerphenylCO(4''-OnC5H11)}-[Orn(4R-OH,5R-OCH2CH2NMe3+)]T[Hyp][hTyr(3S-OH,4S-OH)]T[Pro(3S-OH,4S-Me)]; lactam 1-C) the “Vc, proportional change in infected patients” value ([1]; final population PK model, covariate effect of infection status on Vc) was 0.478, the “Vp2, proportional change in infected patients” value ([1]; final population PK model, covariate effect of infection status on Vp2) was 1.69 and the Vp1-BSA power [1, 4] was 1.14. The Vp2-BSA power [1, 4] was 2.47, the Vp1-albumin power ([1]; final population PK model, covariate effect: (albumin/4.2)^power) was −0.829 and the Vc-BSA slope ([1]; final population PK model, covariate effect: Vc + slope x (BSA - 1.83)) was 7.54. For the same molecule, the “CLd1, population mean final estimate” value ([1]; final population PK model, distributional clearance to peripheral compartment 1) was 18.2 L/h, the “CLd2, population mean final estimate” value ([1]; final population PK model, distributional clearance, peripheral compartment 2) was 0.541 L/h and the “CLd3, population mean final estimate” value ([1]; final population PK model, distributional clearance, peripheral compartment 3) was 0.0743 L/h. For the same molecule, the “Vp1, population mean final estimate” value ([1]; final population PK model, volume of distribution for peripheral compartment 1, albumin 4.2, BSA 1.83) was 14.6 L, the “Vp2, population mean final estimate” value ([1]; final population PK model, volume of distribution for peripheral compartment 2, BSA 1.83, not infected) was 6.69 L and the “Vc, population mean final estimate” value ([1]; final population PK model, volume of distribution for the central compartment, BSA 1.83, not infected) was 11.1 L. The “Vp3, population mean final estimate” value ([1]; final population PK model, volume of peripheral compartment 3) was 13.6 L, the clearance ([1]; human, final linear four-compartment population PK model, zero-order IV input, pooled healthy volunteers (phase 1) and infected patients (phase 2), 135 subjects, 50 to 1,400 mg IV, plasma LC/MS/MS, NONMEM FOCE-I, albumin 4.2, read-out: CL, population mean final estimate (converted)) was 4.23 mL/min and the “AUC0–168” value [2, 5] was 673 (372–1,210) mg·h/liter. The Cmax ([2]; STRIVE patients, mean (SD), SD) was 16.4 (4.38) mg/liter, the Cmax [2, 5] was 16.4 (7.10–26.0) mg/liter and the Cmin ([2]; STRIVE patients, mean (SD), SD) was 2.07 (0.659) mg/liter. The Cmin [2, 5] was 1.90 (1.04–3.83) mg/liter, the clearance ([2]; STRIVE patients, mean (SD), SD) was 6.08 mL/min and the clearance [2, 5] was 5.75 mL/min. The Vd ([2]; STRIVE patients, mean (SD), SD) was 61 L, the Vd [2, 5] was 52.7 L and the “AUC0–168” value ([2]; patients with candidemia and/or invasive candidiasis, STRIVE trial, 400 mg IV week 1, mean (SD), SD) was 709 (184) mg·h/liter. The protein binding ([3]; humans) was 97.4% and the protein binding ([3]; rats) was 99.2%.

— PMC8522775, “Population Pharmacokinetics of Rezafungin in Patients with Fungal Infections” (Antimicrobial Agents and Chemotherapy, 2021)
